According to publication PMC9147645, “Food-Derived β-Carboline Alkaloids Ameliorate Lipid Droplet Accumulation in Human Hepatocytes” (Pharmaceuticals, 2022):
Like-named read-outs stand apart in the source and are kept apart here.

Tests used:
[1] = tested on: stearoyl-CoA desaturase 1 (SCD1); assay: Gene expression, real-time PCR; format: cell-based, human; settings: HepG2 + 0.25 mM OA, 200 and 400 μM compound, 24 h, normalized to GAPDH
Protocol: (§1) To better understand how the supplementation of compounds 2 and 4 during LDA in HepG2 cells affects lipolysis and lipogenesis, we performed gene expression analysis using real-time PCR under the following conditions. Briefly, HepG2 cells (2.0 × 10^5/well) were seeded in 24-well plates (n = 6 per treatment). After 24 h, the cells were treated with PBS, 0.25 mM OA only, 0.25 mM OA plus 200 and 400 μM compound 2, or 0.25 mM OA plus 200 and 400 μM compound 4. After another 24 h, RNA extraction and complementary DNA synthesis were performed, according to the manufacturer’s instructions and a previous study. The sequences of the primers used are shown in the Supplementary Materials, Table S1: adipose triglyceride lipase (ATGL), diacylglycerol O-acyltransferase 1 (DGAT1), sterol regulatory element-binding protein 1 (SREBP1), fatty acid synthase (FASN), stearoyl-CoA desaturase 1 (SCD1), and glyceraldehyde-3-phosphate dehydrogenase (GAPDH). PCR was performed using a CFX 96 Real-Time PCR Detection System (Bio-Rad Laboratories Inc., Hercules, CA, USA) under the following conditions: 95 °C for 30 s, followed by 40 cycles at 95 °C for 5 s, 60 °C for 5 s, and 72 °C for 10 s. All gene expression levels were analyzed using the ΔΔCt method and normalized to GAPDH. Data were represented as relative expression based on that of the control group.

[2] = tested on: fatty acid synthase (FASN); assay: Gene expression, real-time PCR; format: cell-based, human; settings: HepG2 + 0.25 mM OA, 200 and 400 μM compound, 24 h, normalized to GAPDH
Protocol: as §1

[3] = tested on: diacylglycerol O-acyltransferase 1 (DGAT1); assay: Gene expression, real-time PCR; format: cell-based, human; settings: HepG2 + 0.25 mM OA, 200 and 400 μM compound, 24 h, normalized to GAPDH
Protocol: as §1

[4] = tested on: sterol regulatory element-binding protein 1 (SREBP1); assay: Gene expression, real-time PCR; format: cell-based, human; settings: HepG2 + 0.25 mM OA, 200 and 400 μM compound, 24 h, normalized to GAPDH
Protocol: as §1

HepG2 cells [5] = assay: Accumulated triacylglycerol species by LC-MS/MS in oleic acid-loaded cells; format: cell-based, human; settings: for Number of accumulated triacylglycerol molecular species inhibited: 24 h of treatment; for inhibition at 200 µM: Homo sapiens, HepG2, 24 h
Protocol: Tested compounds (200 μM) were added to cultured HepG2 cells loaded with oleic acid and incubated at 37 °C for 24 h, as previously described. Centrifuged samples were analyzed using an LC/MS orbitrap. Chromatographic separation was performed using a Shimadzu Prominence UHPLC system with a binary solvent delivery system and a standard auto-sampler. An Atlantis® T3 column (2.1 × 150 mm, 3 μm, Waters) was used for separation, with a flow rate of 200 μL/min. The mobile phase consisted of A: 10 mM ammonium acetate solution; B: isopropanol; and C: methanol. Positive mode: 0–1 min, 6% B and 90% C; 1–10 min, 83% B and 15% C; 10–19 min, 83% B and 15% C; 19–19.5 min, 6% B and 90% C; 19.5–22 min, 6% B and 90% C. The injection volume was 10 μL. The column temperature was maintained at 40 °C. The LC/MS parameters were as previously described.

HepG2 cells [6] = assay: Cytotoxicity / lipocytotoxicity assay (CCK-8); format: cell-based; settings: HepG2
Protocol: (§2) HepG2 cells were purchased from the American Type Culture Collection (ATCC) (Manassas, VA, USA). High-glucose DMEM containing 10% heat-inactivated FBS and 1% penicillin–streptomycin was maintained under a humidified atmosphere at 37 °C with 5% CO2, as indicated in the Supplementary Materials. HepG2 cells (1.5 × 10^4/well) in DMEM supplemented with 10% FBS were seeded into a 96-well plate. A cytotoxicity assay was performed according to the manufacturer’s protocol using CCK-8 (Dojindo Molecular Technologies), as indicated in the Supplementary Materials (Materials and Methods). […]
(§3) 2 1.2. Cytotoxicity assay […] HepG2 cells (1.5 × 10^4/well) in DMEM supplemented with 10% FBS were under reduced pressure, and H2O (25 ml) was added. Then the solution was seeded into a 96-well plate. The cytotoxicity assay was done using CCK-8 extracted with AcOEt after adjusted to 9–10 with aq. NaOH solution. The organic (Dojindo Molecular Technologies) according to the manufacturer's protocol. […]
(§4) Compounds 1 and 3. To a stirred soln. Compound 10 (218 mg, 1.00 mmol), 5- Technologies, Rockville, USA) according to the manufacturer ’sinstructions. Cell Acetoxymethylfurfural (1, 168 mg, 1.00 mmol) and Nano CuO (7.955 mg, 0.1 suspension (100 μl/well) was inoculated in a 96-well plate (Iwaki, Japan), and mmol) were added 6 ml of DMF. The mixture was stirred at 90℃ for 16 h. The pH once monolayers were observed, treatments were added (n = 3 per each of the aqueous solution was adjusted to 9–10 with aq NaOH solution after adding treatment). Cells were then pre-incubated with the treatments for 24 h before H O. After extracting the solution with AcOEt, the organic layer was washed with assay to determine cell viability.Absorbance was measured at 450 nm using a 2 plate reader (PerkinElmer-ARVO-MX-ID 10533234, Japan). […]
(§5) [5-(hydroxymethyl)-2-furanyl]-1H-pyrido[3,4-b]indole-3-carboxylic acid (2, CAS culture medium was removed from each dish, and cells were washed Registry Number 896466-77-6); flazine methyl ester acetate (3, CAS Registry and rinsed with 1× PBS. Cells were then fixed for 20 min in 10% formalin and Number 104537-95-3); flazin (4, CAS Registry Number 100041-05-2); washed twice using PBS. Then, Oil Red O dye was added to the dishes and incubated for 20 min. Finally, the dye was removed from each dish and cells 5

[7] = Cytotoxicity / lipocytotoxicity assay (CCK-8); format: cell-based; settings: human, HepG2 cells
Protocol: as §2, §3, §4, §5

HepG2 cells [8] = assay: LD fluorescence staining assay (Oil Red O / Hoechst); format: cell-based, human; settings: 200 μM, HepG2 loaded with OA, Oil Red O and Hoechst 33,342
Protocol: LD fluorescence staining assay: The staining was performed with modifications based on our previous report. HepG2 cells were seeded in 35 mm glass bottom dishes at 4.0 × 10^5/plate. After 24 h of incubation, OA and all samples were processed for 24 h. Oil Red O staining was performed, then the Hoechst reagent solution mixed with PBS was added and incubated in the dark for 25 min. Images were then captured using a BZ-9000 fluorescence microscope (Keyence Co., Ltd., Osaka, Japan).

[9] = 24 h, HepG2 + OA, vs control (+OA), read-out: Inhibition of accumulated TAG 48:4
[10] = 24 h, HepG2 + OA, vs control (+OA), read-out: Inhibition of accumulated TAG 50:3
[11] = 24 h, HepG2 + OA, vs control (+OA), read-out: Inhibition of accumulated TAG 50:5
[12] = 24 h, HepG2 + OA, vs control (+OA), read-out: Inhibition of accumulated TAG 52:4
[13] = 24 h, HepG2 + OA, vs control (+OA), read-out: Inhibition of accumulated TAG 52:5
[14] = 24 h, HepG2 + OA, vs control (+OA), read-out: Inhibition of accumulated TAG 52:6
[15] = 24 h, HepG2 + OA, vs control (+OA), read-out: Inhibition of accumulated TAG 52.7
[16] = 24 h, HepG2 + OA, vs control (+OA), read-out: Inhibition of accumulated TAG 54:7
[17] = 24 h, HepG2 + OA, vs control (+OA), read-out: Inhibition of accumulated TAG 56.9
[18] = HepG2, DMEM loaded with fatty acid (+OA), read-out: Lipocytotoxicity (LC50), concentration at which 50% of cells died
[19] = HepG2, DMEM without fatty acid (−OA), read-out: Cytotoxicity (CC50), concentration at which 50% of cells died

Row | SMILES | SCD1 gene expression [1] | FASN gene expression [2] | DGAT1 gene expression [3] | SREBP1 gene expression [4] | Number of accumulated triacylglycerol molecular species inhibited (HepG2 cells [5]; 200 μM, HepG2 + OA) | inhibition at 200 µM (HepG2 cells [5]; [9]) [%] | inhibition at 200 µM (HepG2 cells [5]; [10]) [%] | inhibition at 200 µM (HepG2 cells [5]; [11]) [%] | inhibition at 200 µM (HepG2 cells [5]; [12]) [%] | inhibition at 200 µM (HepG2 cells [5]; [13]) [%] | inhibition at 200 µM (HepG2 cells [5]; [14]) [%] | inhibition at 200 µM (HepG2 cells [5]; [15]) [%] | inhibition at 200 µM (HepG2 cells [5]; [16]) [%] | inhibition at 200 µM (HepG2 cells [5]; [17]) [%] | Cytotoxicity (in words) (HepG2 cells [6]) | CC50 at 24 h [7, 18] [µM] | CC50 at 24 h [7, 19] [µM] | LDs in fluorescence image (HepG2 cells [8]) | further results
1 | O=C(O)C1Cc2c([nH]c3ccccc23)C(c2ccc(CO)o2)N1 (centres unmarked) [Compound 2, 1,2,3,4-tetrahydro-1-(5-(hydroxymethyl)-2-furanyl)-9H-pyrido [3,4-b]indole-3-carboxylic acid] | did not induce a significant reduction | significantly downregulated | no change | significantly downregulated | twenty-five | 23.4 | 26.6 | 33.7 | 28.1 | 9.5 | 33.4 | 35.1 | 30 | 28.3 | no cytotoxicity | 484 | > 700 | significantly inhibited | inhibition at 200 µM (HepG2 cells [5]; 24 h, HepG2 + OA, vs control (+OA), read-out: Inhibition of accumulated TAG 56:10): 45.9%; inhibition at 200 µM (HepG2 cells [5]; 24 h, HepG2 + OA, vs control (+OA), read-out: Inhibition of accumulated TAG 58:12): 50 to 74%; inhibition at 200 µM (HepG2 cells [5]; 24 h, except TAGs 58:12, 46:3, 54:6, and 56:7, read-out: Inhibition of most of the accumulated triacylglycerol molecular species): 25 to 49%
2 | O=C(O)c1cc2c([nH]c3ccccc32)c(-c2ccc(CO)o2)n1 [Compound 4, flazin] | strongly downregulated | strongly downregulated | no change | strongly downregulated | twenty | 39 | 49.4 | 72.5 | 51.2 | 49.1 | 65.7 | 70.7 | 66.3 | 71.4 | no cytotoxicity | 600 | > 700 | significantly inhibited | Inhibition of TAGs 52:6; 52:7; 56:10; 56:9; and 62:4 (in words) (HepG2 cells [5]; 200 μM, 24 h, HepG2 + OA): total inhibition; inhibition at 200 µM (HepG2 cells [5]; 24 h, HepG2 + OA, vs control (+OA), read-out: Inhibition of accumulated TAG 46:3): 28.9%; inhibition at 200 µM (HepG2 cells [5]; 24 h, HepG2 + OA, vs control (+OA), read-out: Inhibition of accumulated TAG 54:6): 49.4%; inhibition at 200 µM (HepG2 cells [5]; 24 h, HepG2 + OA, vs control (+OA), read-out: Inhibition of accumulated TAG 56:7): 49.1%; inhibition at 200 µM (HepG2 cells [5]; 24 h, HepG2 + OA, vs control (+OA), read-out: Inhibition of accumulated TAG 56:8): 58.1%; inhibition at 200 µM (HepG2 cells [5]; 24 h, HepG2 + OA, vs control (+OA), read-out: Inhibition of accumulated TAG 58:11): 65.2%; inhibition at 200 µM (HepG2 cells [5]; 24 h, HepG2 + OA, vs control (+OA), read-out: Inhibition of accumulated TAG 60:12): 66.4%; inhibition at 200 µM (HepG2 cells [5]; 24 h, HepG2 + OA, vs control (+OA), read-out: Inhibition of accumulated TAG 62:14): 76.4%
